The test system of one series is Valencia orange tree. The experiment in a line: Study 1: comparison of injection and spray applications, tree vigor rating. The settings on record: Study 1 conclusion. It is filed as in vivo. As for the experimental part: Tree Vigor Ratings: 1=Lowest Vigor; 5=Highest Vigor. LSD stands for least significant difference and C.V. stands for Coefficient of Variance.
For Treatment 1, a 5,500 ppm solution of PG-OTC was prepared using distilled water. This solution then was acidified to pH 2 using hydrochloric acid. […] For Treatment 2, 2.5 g of PG-OTC was dissolved in 2 gallons of water. The resultant solution was sprayed onto the foliage of the trees at a rate of 1 quart (0.3125 g OTC·HCl) per tree (n=9). Vigor ratings were performed 60 days after application of treatments.

Series [1] in a line: OTC residues in fruit after injection. It is filed as in vivo. The settings on record: when using PG-OTC solutions.
Series [2] is described as follows: Visual monitoring of homogeneity of 11,000 ppm OTC test solutions in pH 2 water. Type of series: physicochemical. To be noted: 11,000 ppm in pH 2 water, 10× magnification, immediately upon preparation at 75° F.; HCl. As for the experimental part: Next, OTC solutions were prepared by first reducing the pH of water to pH 2 using hydrochloric acid. 11.0 g of PG-OTC (>95%) and non-sterile, nS-nPG-OTC (putatively 95%) each were dissolved into 1.0 L of the pH 2 water to generate 11,000 ppm test solutions, which then were monitored visually at 10× magnification. […] To elucidate the nonhomogeneous nature of the nS-nPG-OTC solutions, visualization was performed at 60× magnification, as is shown in FIG. 8 and wherein an abundance of actively growing needle-like crystals having lengths of approximately 10-250 μm are visible. These needle-like crystals likely comprise OTC and/or OTC and one or more impurities.

Series [3] in a line: Uptake (injection time) of OTC solutions injected into rootstock of Valencia citrus trees. It is filed as in vivo. The settings on record: for Absorption of solution by trees: overall conclusions from functional testing, nS-nPG-OTC: after the first 50 mL. As for the experimental part:
The test article solutions (11,000 ppm) were prepared as above and were fluidly pressurized into latex injection devices (FLexInect™, TJ Biotech LLC, Buffalo, SD) and then were injected into rootstock of uniform, commercially grown, Valencia citrus trees. The injection devices were monitored to measure uptake rates of the solutions.
Table 2 presents the results of Trial 1, which used trees (n=10) having trunk diameters between 2.125″ and 3.00″.
Table 3 presents the results of Trial 2, which used trees (n=10) having trunk diameters between 3.00″ and 4.25″. 100 mL of the test solutions were injected with the ambient temperature between 80° F. and 90° F.
Table 4 presents the results of Trial 3, which used trees (n=30) having trunk diameters between 3.00″ and 4.25″. Up to 100 mL of the test solutions were injected with the ambient temperature <70° F., at which temperatures transpiration in the vascular system is reduced. In this trial, the injections were stopped at 120 minutes regardless of if injections were complete.

The results in this text go back to patent US20240099299A1, “ANTIMICROBIAL COMPOSITIONS AND METHODS FOR THEIR PREPARATION AND USE IN TREATING PLANT DISEASES” (priority 2021, published 2024).

Structures are written as SMILES. Counter-ions that a name gives are not always drawn. Some results are limits rather than exact numbers.

Take `CN(C)[C@@H]1C(O)=C(C(N)=O)C(=O)[C@@]2(O)C(O)=C3C(=O)c4c(O)cccc4[C@@](C)(O)[C@H]3[C@H](O)[C@@H]12` [PG-OTC, Oxytetracycline HCl]: the “Effectiveness of trunk injection versus application of unacidified solution to foliage by spraying” value in the series on Valencia orange tree is given as “more effective”. In addition, the “Residues in the fruit (within tolerance)” value in series [1] was at most 10 PPB. In addition, in series [2], the Homogeneity of solution entry was “essentially homogeneous”. In addition, the “Time (Minutes) of injection/uptake” value was 8.4 b Minutes in series [3] (Trial 1: 50 mL of 11,000 ppm solution, trunk diameter 2.125-3.00 in, 80-90° F., n=10, HCl); 18.2 b Minutes in series [3] (Trial 2: 100 mL of 11,000 ppm solution, trunk diameter 3.00-4.25 in, 80-90° F., n=10, HCl); 81.1 b Minutes in series [3] (Trial 3: up to 100 mL of 11,000 ppm solution, trunk diameter 3.00-4.25 in, <70° F., stopped at 120 minutes, n=30, HCl). In addition, the “Absorption of solution by trees” value in series [3] (HCl) was “readily absorbed”.

Regarding `CN(C)[C@@H]1C(O)=C(C(N)=O)C(=O)[C@@]2(O)C(O)=C3C(=O)c4c(O)cccc4[C@@](C)(O)[C@H]3[C@H](O)[C@@H]12` [nS-nPG-OTC, Oxytetracycline], the “Time (Minutes) of injection/uptake” value in series [3] (Trial 1: 50 mL of 11,000 ppm solution, trunk diameter 2.125-3.00 in, 80-90° F., n=10) is on record as 15.3 a Minutes; in series [3] (Trial 2: 100 mL of 11,000 ppm solution, trunk diameter 3.00-4.25 in, 80-90° F., n=10) it was 134.7 a Minutes; in series [3] (Trial 3: up to 100 mL of 11,000 ppm solution, trunk diameter 3.00-4.25 in, <70° F., stopped at 120 minutes, n=30), 117.33 a Minutes. In series [3], the “Absorption of solution by trees” value is “marked decrease in absorption rate”.
